Converted amounts (≈) assume the structure as drawn.
Legend:
[1] = tested on: Albino BALBc mice, cecal ligation puncture (CLP); experiment: cecal ligation puncture (mCLP) model, 7-day survival; assay type: in vivo
Experimental: The cecal ligation puncture (CLP) procedure was derived from a modification of standard methods previously described. Female, non-pregnant, specific pathogen-free, Albino BALBc mice (20-25 gm) were used in this experiment. The test compound (n=8 in each group) or corn oil control (n=12) were randomized to a treatment protocol consisting of 50 mg/kg of either the test compound or similar volume of corn oil at the time of CLP (time 0) and 24 and 48 hours following surgery. Animals were allowed to eat and drink sterile water on an ad libitum basis until 12 h before surgery when food was withheld until after the surgical procedure.
Anesthetized animals (methoxyflurane, Mallinckodt Veterninary Inc., Mundeline, Ill.) had the abdominal skin shaved and a midline, abdominal incision was made. The cecum was exteriorized and distended using intraluminal contents from the colon. The cecum was then ligated below the ileocecal valve and punctured twice using a 23-gauge sterile needle. The cecum was returned to the peritoneal cavity and the transversalis fascia was closed along with the skin incision. The skin incision was covered with topical bacitracin ointment. The animals were given a single […] dose of trovafloxacin (20 mg/kg IM) immediately post-operatively and a 1-mL subcutaneous dose of PBS was given as fluid resuscitation. […] All animals underwent necropsy examination for histological evidence of organ injury, pathology scoring of intestinal mucosa and quantitative bacteriology.
Differences in survival time between groups were analyzed by Kaplan-Meier survival plots and log-rank testing. Other parameters were measured using a Mann-Whitney U-Test for 2 groups or the Kruskal-Wallis one way analysis of variance for 3 or more groups. A p value of <0.05 was considered significant. All data is presented as mean and standard deviation.
The root compound (ERB-041) was dosed IV in the mCLP model, at 1 and 3 mg/kg at 24, 48 and 72 hours after induction of peritonitis. This therapeutic IV administration in mCLP confirmed attenuation of lung injury and cytokine/chemokine responses and attenuation of the subsequent clinical course, respectively.^5 achieving 7-day survival of 95 and 90% in the 3 and 1 mg/kg groups.
The 1 and 3 mg/kg doses were different from vehicle (0.05).

[2] = metabolite profiling of pooled plasma after single IV dose of the mono-phosphate derivative, rat; conditions: single IV dose of mono-phosphate derivative (1.3 and 3.9 mg/kg), LC/UV/MS
Experimental: (§1) In this study, 5, 15, 30 min, 1, 2, 4, 6, 8 and 24 hr plasma samples were collected following a single IV dose of the mono-phosphate derivative (1.3 and 3.9 mg/kg) to mice, rats and monkeys. Equal volume (100 μL) of samples from 5, 15, 30 min and 1, 2, 4 hr and 6, 8, 24 hr time points from each subject (n=3) were pooled from the two dosing groups. Aliquots (900 μL) of pooled plasma were mixed with 2700 μL of cold acetonitrile and centrifuged at 3200×g for 10 minutes. The resulting supernatants were transferred to clean tubes and evaporated to dryness in a TurboVap LV at ambient temperature under a slow stream of nitrogen. The dried extracts were reconstituted with 300 μL of 20:80 acetonitrile:water (v/v). The samples were then analyzed by LC/UV/MS for metabolite profiling and characterization. LC-ESI/MS in negative ionization mode was used to acquire mass spectral data.

[3] = metabolite profiling of pooled plasma after single IV dose of the mono-phosphate derivative, monkey; conditions: single IV dose of mono-phosphate derivative (1.3 and 3.9 mg/kg), LC/UV/MS
Experimental: as §1

[4] = aqueous solubility at pH 7.4; assay type: physicochemical; conditions: aqueous medium at pH 7.4 (buffer not specified), pH 7.4, aqueous buffer
[5] = metabolite profiling of pooled plasma after single IV dose of the mono-phosphate derivative, mouse; conditions: single IV dose of mono-phosphate derivative (1.3 and 3.9 mg/kg), LC/UV/MS
Experimental: as §1

[6] = IV pharmacokinetics; assay type: in vivo
Experimental: as §1

[7] = 1 mg/kg IV at 24, 48 and 72 hours after surgery / induction of peritonitis
[8] = 3 mg/kg IV at 24, 48 and 72 hours after surgery / induction of peritonitis

Structure (SMILES)	7-day survival [1, 7]	7-day survival [1, 8]	lung injury and cytokine/chemokine responses ([1]; 1 and 3 mg/kg IV at 24, 48 and 72 hours after induction of peritonitis)	Metabolites of phosphate prodrug characterized in plasma: Rat [2]	Metabolites of phosphate prodrug characterized in plasma: Monkey [3]	solubility [4]	Metabolites of phosphate prodrug characterized in plasma: Mouse [5]	IV pharmacokinetics [6]	7-day survival ([1]; 0.3 mg/kg IV at 24, 48 and 72 hours after surgery)	minimally effective dose in mCLP ([1]; IV)
C=Cc1cc(O)cc2nc(-c3ccc(O)c(F)c3)oc12 [ERB-041, 2-(3-fluoro-4-hydroxyphenyl)-7-vinyl-1,3-benzoxazol-5-ol, reference compound]	90%	95%	attenuation	Yes	Yes	4 µg/mL (≈ 14.7 µM)	Yes	–	–	–
C=Cc1cc(O)cc2nc(-c3ccc(OP(=O)(O)O)c(F)c3)oc12 [Mono-Phosphate derivative of ERB 041, 2-fluoro-4-(5-hydroxy-7-vinylbenzo[d]oxazol-2-yl)phenyl dihydrogen phosphate]	60%	60%	–	Yes	Yes	> 100 µg/mL	Yes	reasonable	40%	1 mg/kg

— patent publication US20110212923A1, “Phosphate Derivatives of Substituted Benzoxazoles” (PFIZER INC., priority 2008, published 2011)
